Reference: article PMC11649397, “The study of halogen effect on the reactivity of the serine-targeting covalent warheads” (Frontiers in Chemistry, 2024)
Read-outs that look alike come from different tables or passages of the source.

Legend:
hCES2A = molecular target: T1, hCES2A (Homo sapiens, UniProt O00748); test: Inhibition assay on hCES2A (fluorescent substrate FD); format: biochemical; details: for selective inhibitory activity on hCES2A: 10 μM, selectivity screening; for IC50: mean ± SD, n = 3
T1 sequence (O00748 27-559): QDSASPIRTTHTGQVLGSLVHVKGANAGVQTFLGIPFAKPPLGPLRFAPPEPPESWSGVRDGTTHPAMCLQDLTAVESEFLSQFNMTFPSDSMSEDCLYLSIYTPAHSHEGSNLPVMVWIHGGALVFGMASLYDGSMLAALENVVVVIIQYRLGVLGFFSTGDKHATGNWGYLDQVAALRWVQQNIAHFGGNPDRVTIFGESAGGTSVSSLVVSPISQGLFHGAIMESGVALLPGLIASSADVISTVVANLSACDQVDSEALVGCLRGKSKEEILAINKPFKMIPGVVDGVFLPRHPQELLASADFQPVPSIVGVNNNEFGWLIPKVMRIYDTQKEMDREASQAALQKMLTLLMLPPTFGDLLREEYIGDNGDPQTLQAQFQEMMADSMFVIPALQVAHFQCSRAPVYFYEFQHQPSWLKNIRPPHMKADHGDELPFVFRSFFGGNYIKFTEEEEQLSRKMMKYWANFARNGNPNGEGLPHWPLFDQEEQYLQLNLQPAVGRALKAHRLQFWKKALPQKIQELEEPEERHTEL
Method: 1. Detailed experimental, materials, and methods
The household library of covalent fragments including D and F was from Organic Chemistry […]
Fig. S1. Partial fragment molecules of a household library targeting to serine. […]
Inhibition assay on hCES2A
Human carboxylesterase 2 (hCES2A) inhibition assays were conducted using FD, a known fluorescent substrate. 3 Briefly, hCES2A (0.4 μg/mL, final concentration) was preincubated with analytes/DMSO (as a control group) in PBS (pH 7.4) at 37 °C for 3 min. This was followed by adding the substrate FD (4 μM, final concentration) in the incubation mixture and allowing it to react for 30 min. The fluorescent signals (excitation/emission, 480 nm/525 nm) were continuously recorded by a microplate reader (SpectraMax iD3Molecular Devices, Austria). […]

Notum = molecular target: T2, Notum (Homo sapiens, UniProt Q6P988); test: Inhibition assay on Notum (substrate OPTS); format: biochemical; details: 10 μM, selectivity screening
T2 sequence (Q6P988 20-496): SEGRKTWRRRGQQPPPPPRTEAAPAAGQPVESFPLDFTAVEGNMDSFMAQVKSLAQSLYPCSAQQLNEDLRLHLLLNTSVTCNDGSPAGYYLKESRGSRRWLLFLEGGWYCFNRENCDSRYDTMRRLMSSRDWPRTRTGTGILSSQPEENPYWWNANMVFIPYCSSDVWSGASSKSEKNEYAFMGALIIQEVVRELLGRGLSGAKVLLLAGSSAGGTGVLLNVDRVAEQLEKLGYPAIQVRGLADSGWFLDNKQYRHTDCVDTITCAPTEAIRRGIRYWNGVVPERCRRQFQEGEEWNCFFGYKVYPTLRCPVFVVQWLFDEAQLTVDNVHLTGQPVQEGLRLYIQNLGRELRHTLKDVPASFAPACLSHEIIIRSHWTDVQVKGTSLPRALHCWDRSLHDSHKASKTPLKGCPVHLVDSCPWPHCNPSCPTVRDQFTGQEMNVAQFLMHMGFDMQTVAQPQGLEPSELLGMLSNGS
Method: fluorogenic probe. 4 Briefly, the incubation mixtures (0.1 mL) contained Tris-HCl buffer, hPL solution (0.25 μg/mL, final concentration), porcine bile salt (0.1 mg/mL, final concentration) and each inhibitor (with different concentrations). After preincubated at 37 °C for 3 min, DDAO-ol (20 µM, final concentration) was added to initial reaction. The fluorescent signals of hydrolytic product were quantified by using the microplate reader (Spectra Max M4, Austria), with the wavelength of 600 nm and 660 nm for excitation and emission, respectively.
Inhibition assay on Notum
OPTS, a known fluorogenic probe, was used as the substrate to assess the residual activities of Notum in the presence of each tested compound. […] After preincubated at 37 °C for 1 min, OPTS was added to initiate the hydrolytic reaction and the multi-mode microplate reader (SpectraMax iD3, Molecular Devices, Austria) was used to analyze the florescence signals of the […]
The F-3, F-4, F-10-bound peptides was analysed using the nanoLC-MS/MS system, respectively.6 The purified hCES1A (150 μg, final content) was co-incubated with the small molecule inhibitor F-3/ F-4/ F-10 (100 μM, final concentration) at 4 °C and 25 °C, respectively, for 4h. […]

Row | SMILES | selective inhibitory activity on hCES2A (hCES2A) | response to Notum (Notum) | IC50 (hCES2A; 3 min incubation, read-out: hCES2A IC50 3 min) | time-dependent inhibition against hCES2A (hCES2A; 3 min vs 33 min incubation) | IC50 (hCES2A; 33 min incubation, read-out: hCES2A IC50 33 min)
1 | O=S(=O)(F)c1ccc(Br)cc1 [D, 4-bromobenzenesulfonyl fluoride] | decent selective inhibitory activities | no potent responses | – | – | –
2 | O=C(c1ccccc1)C(F)(F)F [F, 2,2,2-trifluoroacetophenone] | decent selective inhibitory activities | no potent responses | 160 ± 18.4 nM | no significant time-dependent inhibition | 336 ± 37.2 nM
